ChEMBL document CHEMBL4196125, “Identification of N-Benzyl 3,5-Dinitrobenzamides Derived from PBTZ169 as Antitubercular Agents” (ACS Med Chem Lett, 2018)
Converted amounts (≈) assume the structure as drawn.

Tests used:
Assay type in all cases: functional
[1] = system: Mycobacterium tuberculosis; assay: Antitubercular activity against isoniazid/rifampicin-resistant Mycobacterium tuberculosis 12525 clinical isolate measured after 7 days by microplate alamar blue assay; conditions: Mycobacterium tuberculosis, 12525, 168 h
[2] = system: Mycobacterium tuberculosis; assay: Antitubercular activity against isoniazid/rifampicin-resistant Mycobacterium tuberculosis 14231 clinical isolate measured after 7 days by microplate alamar blue assay; conditions: Mycobacterium tuberculosis, 14231, 168 h
[3] = system: Mycobacterium tuberculosis; assay: Antitubercular activity against Mycobacterium tuberculosis H37Rv harboring GFP measured after 7 days by fluorescence assay; conditions: 168 h

| Structure (SMILES) | MIC90 [1] [µg/mL] | MIC90 [2] [µg/mL] | MIC [3] [µg/mL] |
| --- | --- | --- | --- |
| O=C(NCc1ccc(N2CC3CCCCC3C2)cc1)c1cc([N+](=O)[O-])cc([N+](=O)[O-])c1 (centres undefined) | 0.031 (≈ 0.073 µM) | 0.125 (≈ 0.294 µM) |  |
| CO[C@H]1/C=C/O[C@@]2(C)Oc3c(C)c(O)c4c(O)c(c(/C=N/N5CCN(C)CC5)c(O)c4c3C2=O)NC(=O)/C(C)=C\C=C\[C@H](C)[C@H](O)[C@@H](C)[C@@H](O)[C@@H](C)[C@H](OC(C)=O)[C@@H]1C [RIFAMPIN] | > 40 | > 40 |  |
| O=C(NCc1ccc(N2CCN(c3ccc(F)cc3)CC2)cc1)c1cc([N+](=O)[O-])cc([N+](=O)[O-])c1 | 0.047 (≈ 0.098 µM) | 0.077 (≈ 0.161 µM) |  |
| O=C(NCc1ccc(N2CCC(C(F)(F)F)CC2)cc1)c1cc([N+](=O)[O-])cc([N+](=O)[O-])c1 | < 0.016 | 0.075 (≈ 0.166 µM) |  |
| NNC(=O)c1ccncc1 [ISONIAZID] | > 40 | > 40 |  |
| O=C(NCc1ccc(N2CCC(C(F)(F)F)CC2)cc1)c1cc([N+](=O)[O-])cc(C(F)(F)F)c1 | 0.138 (≈ 0.29 µM) | > 40 |  |
| COc1ccc(OCCNC(=O)c2cc([N+](=O)[O-])cc([N+](=O)[O-])c2)cc1 |  |  | 0.075 (≈ 0.208 µM) |
| O=C(NCc1ccc(N2CCC(c3ccc(OC(F)(F)F)cc3)CC2)cc1)c1cc([N+](=O)[O-])cc([N+](=O)[O-])c1 | 0.21 (≈ 0.386 µM) | 0.474 (≈ 0.871 µM) |  |
| O=c1nc(N2CCN(CC3CCCCC3)CC2)sc2c([N+](=O)[O-])cc(C(F)(F)F)cc12 [MACOZINONE] | 0.116 (≈ 0.254 µM) | 0.232 (≈ 0.508 µM) |  |
| O=C(NCc1ccc(N2CCSCC2)cc1)c1cc([N+](=O)[O-])cc([N+](=O)[O-])c1 | 0.017 (≈ 0.0422 µM) | 0.085 (≈ 0.211 µM) |  |
